Target: T1, CXCR4 (Homo sapiens, UniProt P61073)
T1 construct: full-length endogenous receptor on intact Jurkat T cells, untagged
Experiment: inhibition of CXCL12-AF647 binding to intact Jurkat cells, flow cytometry
Assay type: cell-based
Conditions: competition with 2.9 nM CXCL12-AF647; HBSS, 20 mM HEPES, 0.2% BSA, pH 7.4, RT; 15 min preincubation, 30 min with tracer; n = 3; chelator without gallium
From the text: inhibition of CXCL12-AF647 binding to intact Jurkat cells, flow cytometry on CXCR4

T1 sequence (P61073 whole entry): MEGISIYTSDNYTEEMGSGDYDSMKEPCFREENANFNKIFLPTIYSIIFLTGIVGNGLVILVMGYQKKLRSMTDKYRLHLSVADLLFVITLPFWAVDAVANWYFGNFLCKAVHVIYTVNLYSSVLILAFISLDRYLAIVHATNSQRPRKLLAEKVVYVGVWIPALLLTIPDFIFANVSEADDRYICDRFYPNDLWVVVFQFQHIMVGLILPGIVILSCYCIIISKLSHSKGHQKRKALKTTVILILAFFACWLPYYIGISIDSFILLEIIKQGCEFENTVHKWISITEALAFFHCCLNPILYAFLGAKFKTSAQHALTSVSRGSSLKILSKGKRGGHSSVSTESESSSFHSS

Question: Which IC50 does the source give for `O=C(O)CN1CCN(CC(=O)O)CCN(C(CCC(=O)NCc2ccc(NC(=S)NCCCCN(C[C@H]3Cc4ccccc4CN3)[C@H]3CCCc4cccnc43)cc2)C(=O)O)CCN(CC(=O)O)CC1` (stereo partly shown) [TD-01] here?
Answer: Its IC50 is 36.5 ± 1.4 nM.

— PMC11335985, “Radiosynthesis and preclinical evaluation of a ^68Ga-labeled tetrahydroisoquinoline-based ligand for PET imaging of C-X-C chemokine receptor type 4 in an animal model of glioblastoma” (EJNMMI Radiopharmacy and Chemistry, 2024)
